Results reported in patent publication US12679836B2, “4H-pyrrolo[3,2-c]pyridin-4-one compounds” (Bayer Aktiengesellschaft, priority 2019, dated 2026).
Values joined by “and” are separate entries in the source; they are usually repeats but may differ in a detail not shown here. Identical values can stand only once.

What was measured:
[1] = molecular target: Ba/F3-EGFR-L858R C797S cells (Homo sapiens, UniProt P00533, C797S/L858R, cells depend on it); assay: Ba/F3 cell survival assay, EGFR L858R C797S; assay type: cell-based; conditions: without IL-3, without EGF, 48 h; read-out: BA/F3 (EGFR L858R C797S) IC50
Procedure: (§1) 293T cells from ATCC were transfected with pBABEpuro expression constructs for mutant EGFR (V769_D770insASV, D770_N771insNPG, N771_P772insH, H773_V774insNPH, E746_A750del, L858R, D770_N771insSVD C797S, E746_A750del C797S, L858R C797S, L861Q) or mutant ERBB2 (A775_G776insYVMA) and pCL-Eco packaging vector using Fugene-6 transfection reagent from Promega. Plates were incubated at 37° C. for 48 h. Retrovirus was harvested by filtering the media supernatant through a 0.45 μm filter.
(§2) Ba/F3 cells purchased from DSMZ were grown in RPMI+10% FBS+10 ng/mL IL-3 and infected with filtered retroviral supernatant at a 1:2 dilution. Polybrene was added to a concentration of 8 μg/mL, plates were spun for 90 min, and incubated overnight at 37° C. 2 μg/mL puromycin was added to the infected cells 24 h after infection and cells were continually grown in the presence of puromycin and 10 ng/mL IL-3. Following stably expressing Ba/F3 cell lines were generated: Ba/F3-EGFR-V769_D770insASV, Ba/F3-EGFR-D770_N771insNPG, Ba/F3-EGFR-N771_P772insH, Ba/F3-EGFR-H773_V774insNPH, Ba/F3-EGFR-E746_A750del, Ba/F3-EGFR-L858R, Ba/F3-EGFR-D770_N771 insSVD C797S, Ba/F3-EGFR-E746_A750del C797S, Ba/F3-EGFR-L858R C797S, Ba/F3-EGFR L861Q and Ba/F3-ERBB2-A775_G776insYVMA (Ba/F3-vector-control).
(§3) For cell survival assays, Ba/F3 cells were grown to a density of 1-2 million cells per mL, spun down and resuspended in media without IL-3, and replated at a concentration 200,000-500,000 cells per mL. The cells ectopically expressing WT EGFR plated with 10 ng/mL Millipore Culture grade EGF and Ba/F3 cells containing mutant EGFR or Mutant ERBB2 were cultivated without EGF. The cells ectopically expressing pBABEpuro empty vector were plated with 10 ng/mL IL-3.
(§4) 2 days later, cells were plated in 50 μL in a 384 well plate at a concentration of 4000 cells per well for cells assayed in the absence of IL-3 and 2000 cells per well for cells assayed in the presence of IL-3. 100 nL of compound was added to each well using a 100 nL pin head, and plates were incubated at 37° C. for 48 h.
(§5) Cell viability was measured by adding 20 μL of Cell Titer-Glo Luminescent Cell Viability Reagent diluted 1:3 in PBS. Plates were sealed with Perkin Elmer Top-Seal, inverted several times to mix, and immediately centrifuged at 1000 rpm for 2 min. Plates were incubated in low light conditions for 8-10 min and luminescence was measured.

[2] = molecular target: Ba/F3-EGFR-N771_P772insH cells (Homo sapiens, UniProt P00533, INS771H, cells depend on it); assay: Ba/F3 cell survival assay, EGFR N771_P772insH; assay type: cell-based; conditions: without IL-3, without EGF, 48 h; read-out: BA/F3 (EGFR N771_772 insH) IC50
Sequence of Ba/F3-EGFR-N771_P772insH cells (P00533 with tags, fused parts or gaps INS771H): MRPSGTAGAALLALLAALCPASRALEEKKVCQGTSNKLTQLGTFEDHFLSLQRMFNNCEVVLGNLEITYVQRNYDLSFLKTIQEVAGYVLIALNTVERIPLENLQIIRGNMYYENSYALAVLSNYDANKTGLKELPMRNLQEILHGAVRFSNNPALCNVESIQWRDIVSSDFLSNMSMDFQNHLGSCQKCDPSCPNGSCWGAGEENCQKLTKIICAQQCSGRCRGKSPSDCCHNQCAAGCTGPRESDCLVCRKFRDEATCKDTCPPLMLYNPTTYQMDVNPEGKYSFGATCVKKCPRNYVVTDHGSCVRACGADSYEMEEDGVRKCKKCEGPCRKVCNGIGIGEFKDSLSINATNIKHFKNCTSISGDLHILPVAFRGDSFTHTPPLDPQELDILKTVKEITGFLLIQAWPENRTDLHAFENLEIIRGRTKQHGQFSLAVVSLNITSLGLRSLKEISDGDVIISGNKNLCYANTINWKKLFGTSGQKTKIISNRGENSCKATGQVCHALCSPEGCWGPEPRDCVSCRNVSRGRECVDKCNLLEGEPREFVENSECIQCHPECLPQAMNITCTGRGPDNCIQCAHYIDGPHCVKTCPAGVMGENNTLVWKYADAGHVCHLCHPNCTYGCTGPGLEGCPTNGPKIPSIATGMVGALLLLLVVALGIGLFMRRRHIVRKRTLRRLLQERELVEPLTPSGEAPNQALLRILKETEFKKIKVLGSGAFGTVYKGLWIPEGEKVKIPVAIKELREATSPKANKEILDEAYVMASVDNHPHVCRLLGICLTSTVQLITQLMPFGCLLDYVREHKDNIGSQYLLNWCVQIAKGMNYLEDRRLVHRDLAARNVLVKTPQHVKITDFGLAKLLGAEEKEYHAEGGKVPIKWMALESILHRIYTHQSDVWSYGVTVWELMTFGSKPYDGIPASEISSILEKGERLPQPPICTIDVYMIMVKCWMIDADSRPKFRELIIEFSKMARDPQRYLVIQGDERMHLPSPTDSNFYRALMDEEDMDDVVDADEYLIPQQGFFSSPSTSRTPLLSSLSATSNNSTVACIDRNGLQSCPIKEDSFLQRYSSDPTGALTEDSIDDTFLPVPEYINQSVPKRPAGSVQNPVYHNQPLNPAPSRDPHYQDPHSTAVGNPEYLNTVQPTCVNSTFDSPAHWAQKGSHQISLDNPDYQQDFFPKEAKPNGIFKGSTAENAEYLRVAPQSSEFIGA
Procedure: as §1, §2, §3, §4, §5

[3] = molecular target: Ba/F3-EGFR-D770_N771insNPG cells (Homo sapiens, UniProt P00533, INS772GNP, cells depend on it); assay: Ba/F3 cell survival assay, EGFR D770_N771insNPG; assay type: cell-based; conditions: without IL-3, without EGF, 48 h; read-out: BA/F3 (insNPG) IC50
Sequence of Ba/F3-EGFR-D770_N771insNPG cells (P00533 with tags, fused parts or gaps INS772GNP): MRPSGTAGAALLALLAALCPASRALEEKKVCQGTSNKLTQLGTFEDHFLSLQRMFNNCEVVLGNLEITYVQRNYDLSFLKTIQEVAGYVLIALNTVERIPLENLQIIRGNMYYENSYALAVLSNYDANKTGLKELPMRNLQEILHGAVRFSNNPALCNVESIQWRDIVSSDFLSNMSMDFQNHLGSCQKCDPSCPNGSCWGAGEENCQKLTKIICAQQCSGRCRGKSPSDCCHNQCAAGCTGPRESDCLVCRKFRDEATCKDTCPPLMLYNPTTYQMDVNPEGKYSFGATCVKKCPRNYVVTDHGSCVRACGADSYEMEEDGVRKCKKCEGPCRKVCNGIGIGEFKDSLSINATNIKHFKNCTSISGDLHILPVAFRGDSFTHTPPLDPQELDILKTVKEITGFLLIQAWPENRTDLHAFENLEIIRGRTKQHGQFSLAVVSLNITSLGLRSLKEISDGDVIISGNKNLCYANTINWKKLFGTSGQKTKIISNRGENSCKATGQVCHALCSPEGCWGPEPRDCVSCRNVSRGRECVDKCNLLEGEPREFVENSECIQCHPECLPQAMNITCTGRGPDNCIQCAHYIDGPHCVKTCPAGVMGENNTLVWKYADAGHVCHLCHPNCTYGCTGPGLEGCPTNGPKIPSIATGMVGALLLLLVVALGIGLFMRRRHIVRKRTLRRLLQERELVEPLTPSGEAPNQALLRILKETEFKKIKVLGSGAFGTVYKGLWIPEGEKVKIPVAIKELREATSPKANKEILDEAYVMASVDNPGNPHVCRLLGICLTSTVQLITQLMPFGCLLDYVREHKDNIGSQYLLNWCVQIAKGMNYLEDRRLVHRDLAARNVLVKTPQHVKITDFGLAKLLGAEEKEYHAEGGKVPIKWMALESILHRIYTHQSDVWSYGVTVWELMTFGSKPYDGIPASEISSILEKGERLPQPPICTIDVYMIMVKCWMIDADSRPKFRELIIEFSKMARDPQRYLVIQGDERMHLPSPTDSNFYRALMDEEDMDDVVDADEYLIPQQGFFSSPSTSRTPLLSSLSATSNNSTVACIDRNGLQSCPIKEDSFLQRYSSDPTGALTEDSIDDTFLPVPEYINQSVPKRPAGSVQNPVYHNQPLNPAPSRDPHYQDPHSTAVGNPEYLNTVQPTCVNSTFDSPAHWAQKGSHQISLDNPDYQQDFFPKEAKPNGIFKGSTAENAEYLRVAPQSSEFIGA
Procedure: as §1, §2, §3, §4, §5

[4] = molecular target: Ba/F3-EGFR-V769_D770insASV cells (Homo sapiens, UniProt P00533, DUP767-769, cells depend on it); assay: Ba/F3 cell survival assay, EGFR V769_D770insASV; assay type: cell-based; conditions: without IL-3, without EGF, 48 h; read-out: BA/F3 (ASV) IC50
Sequence of Ba/F3-EGFR-V769_D770insASV cells (P00533 with tags, fused parts or gaps DUP767-769): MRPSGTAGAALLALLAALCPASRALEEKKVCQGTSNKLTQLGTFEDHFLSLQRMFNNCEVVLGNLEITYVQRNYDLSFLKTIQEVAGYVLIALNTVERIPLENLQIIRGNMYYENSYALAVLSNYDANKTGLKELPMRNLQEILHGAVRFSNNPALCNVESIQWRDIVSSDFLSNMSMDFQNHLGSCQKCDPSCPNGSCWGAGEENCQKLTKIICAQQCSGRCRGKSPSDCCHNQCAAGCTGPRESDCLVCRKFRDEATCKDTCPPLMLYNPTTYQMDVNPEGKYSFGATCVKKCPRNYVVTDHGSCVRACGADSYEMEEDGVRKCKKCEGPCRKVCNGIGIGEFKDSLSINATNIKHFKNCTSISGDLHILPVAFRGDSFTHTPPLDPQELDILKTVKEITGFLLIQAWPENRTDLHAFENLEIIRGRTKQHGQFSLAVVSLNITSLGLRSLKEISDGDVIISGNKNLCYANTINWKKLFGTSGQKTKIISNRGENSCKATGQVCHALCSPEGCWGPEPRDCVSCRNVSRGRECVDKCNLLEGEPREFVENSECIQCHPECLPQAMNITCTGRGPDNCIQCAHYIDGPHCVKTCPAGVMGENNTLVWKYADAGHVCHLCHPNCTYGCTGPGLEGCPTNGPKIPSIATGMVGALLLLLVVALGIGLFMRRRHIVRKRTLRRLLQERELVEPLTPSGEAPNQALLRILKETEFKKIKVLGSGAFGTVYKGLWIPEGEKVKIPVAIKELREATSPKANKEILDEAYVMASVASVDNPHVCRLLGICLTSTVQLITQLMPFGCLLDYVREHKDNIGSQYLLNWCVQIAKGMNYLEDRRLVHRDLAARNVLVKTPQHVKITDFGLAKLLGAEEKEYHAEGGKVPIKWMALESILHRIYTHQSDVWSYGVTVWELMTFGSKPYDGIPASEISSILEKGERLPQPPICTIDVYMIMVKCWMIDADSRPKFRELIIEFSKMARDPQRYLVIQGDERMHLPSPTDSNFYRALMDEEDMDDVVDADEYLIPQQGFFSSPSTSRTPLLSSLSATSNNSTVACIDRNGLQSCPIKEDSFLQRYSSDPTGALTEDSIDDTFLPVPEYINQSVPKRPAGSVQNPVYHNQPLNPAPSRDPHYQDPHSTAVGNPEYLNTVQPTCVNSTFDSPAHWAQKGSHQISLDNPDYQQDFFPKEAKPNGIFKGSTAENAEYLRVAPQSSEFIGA
Procedure: as §1, §2, §3, §4, §5

[5] = molecular target: Ba/F3-EGFR-E746_A750del C797S cells (Homo sapiens, UniProt P00533, DEL746-750/C797S, cells depend on it); assay: Ba/F3 cell survival assay, EGFR E746_A750del C797S; assay type: cell-based; conditions: without IL-3, without EGF, 48 h; read-out: BA/F3 (EGFR E746_A750del C797S) IC50
Procedure: as §1, §2, §3, §4, §5

[6] = test system: HCC-827 cells (EGFRex19del); assay: HCC-827 proliferation assay (Cell Titer Glo); assay type: cell-based; conditions: Homo sapiens, HCC827, 72 h
Procedure: Cellular Data Description (HCC-827 Cells, EGFRex19del)
HCC-827 cells were purchased from ATCC. […] cells per well were seeded in growth medium (RPM11640, 10% FCS) in a 384-well plate (CORNING #3571). Seed reference plate for time zero determination on the same day. All plates were incubated overnight at 37° C. After 24 hours, test compound were added in 7-step dilution using HP Compound printer and incubated at 37° C. for 72 h. After 3 days, 30 μL/well CTG solution (Promega Cell Titer Glo solution; catalog # G755B and G756B) were added to each well, incubated for 30 minutes and the plate were read on PheraStar. Proliferation is calculated after subtracting time zero luminescence values from day 4 values and comparing to untreated wells.
The IC50 values were determined using the four parameter fit.

[7] = molecular target: Ba/F3-EGFR-H773_V774insNPH cells (Homo sapiens, UniProt P00533, DUP771-773, cells depend on it); assay: Ba/F3 cell survival assay, EGFR H773_V774insNPH; assay type: cell-based; conditions: read-out: BA/F3 (EGFR 773_774insNPH) IC50 [mol/l]; without IL-3, without EGF, 48 h
Sequence of Ba/F3-EGFR-H773_V774insNPH cells (P00533 with tags, fused parts or gaps DUP771-773): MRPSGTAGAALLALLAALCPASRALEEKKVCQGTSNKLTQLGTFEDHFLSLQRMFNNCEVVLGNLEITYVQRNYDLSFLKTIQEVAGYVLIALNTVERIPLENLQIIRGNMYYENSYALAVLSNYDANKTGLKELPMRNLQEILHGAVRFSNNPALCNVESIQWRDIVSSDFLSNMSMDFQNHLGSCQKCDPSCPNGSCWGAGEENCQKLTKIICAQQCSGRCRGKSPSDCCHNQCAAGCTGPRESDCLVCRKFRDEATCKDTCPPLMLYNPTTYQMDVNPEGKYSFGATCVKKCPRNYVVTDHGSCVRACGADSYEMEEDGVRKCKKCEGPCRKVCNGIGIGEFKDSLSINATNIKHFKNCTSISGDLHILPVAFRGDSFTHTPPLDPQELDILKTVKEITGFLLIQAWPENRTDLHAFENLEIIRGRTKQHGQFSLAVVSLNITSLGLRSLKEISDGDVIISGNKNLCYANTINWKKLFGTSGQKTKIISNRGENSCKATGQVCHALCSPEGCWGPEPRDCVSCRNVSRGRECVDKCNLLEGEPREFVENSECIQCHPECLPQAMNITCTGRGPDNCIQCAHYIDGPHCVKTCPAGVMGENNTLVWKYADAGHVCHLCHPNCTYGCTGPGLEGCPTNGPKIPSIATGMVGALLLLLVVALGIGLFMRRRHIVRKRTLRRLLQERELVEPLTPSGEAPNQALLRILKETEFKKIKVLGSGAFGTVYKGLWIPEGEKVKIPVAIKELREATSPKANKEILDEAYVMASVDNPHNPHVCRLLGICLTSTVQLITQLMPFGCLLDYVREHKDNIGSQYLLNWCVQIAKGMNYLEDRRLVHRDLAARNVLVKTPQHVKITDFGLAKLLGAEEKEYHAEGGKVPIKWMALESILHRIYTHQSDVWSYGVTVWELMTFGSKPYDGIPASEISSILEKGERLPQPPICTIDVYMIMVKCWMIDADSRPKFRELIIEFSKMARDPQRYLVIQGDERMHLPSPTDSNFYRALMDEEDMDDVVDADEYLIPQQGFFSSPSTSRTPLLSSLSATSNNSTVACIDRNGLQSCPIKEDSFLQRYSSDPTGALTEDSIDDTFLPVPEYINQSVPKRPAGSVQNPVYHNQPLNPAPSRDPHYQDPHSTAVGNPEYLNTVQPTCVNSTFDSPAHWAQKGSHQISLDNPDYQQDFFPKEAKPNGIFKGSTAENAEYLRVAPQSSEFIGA
Procedure: as §1, §2, §3, §4, §5

[8] = molecular target: T1, EGFR with insertion of SVD between D770 and N771 (EGFR ins SVD) (Homo sapiens, UniProt P00533, DUP768-770); assay: Exon20-Mutant-EGFR(D770_N771insSVD) kinase assay (TR-FRET); assay type: biochemical; conditions: 2 mM ATP, several values per example where printed
T1 construct: made in house; host or cells: Sf9 insect cells (baculovirus)

| SMILES | GI50 [1] [nM] | GI50 [2] [nM] | GI50 [3] [nM] | GI50 [4] [nM] | GI50 [5] | IC50 [6] [nM] | GI50 [7] [nM] | mutEGFR (D770_N771insSVD) kinase assay IC50 [8] |
| --- | --- | --- | --- | --- | --- | --- | --- | --- |
| COc1c(F)cccc1Nc1c(-c2ccncc2OCC2CN(C)CCO2)[nH]c2c1C(=O)NCC2 (single isomer, unassigned) [Example 14, 3-(3-fluoro-2-methoxyanilino)-2-{3-[(4-methylmorpholin-2-yl)methoxy]pyridin-4-yl}-1,5,6,7-tetrahydro-4H-pyrrolo[3,2-c]pyridin-4-one] | 1.91 | 7.6 | 12.5 | 16.4 | 0.379 nM | < 3 | 65.8 | 0.13 nM |
| O=C1NCCc2[nH]c(-c3ccncc3OCC3COCCO3)c(Nc3cccc(Cl)c3Cl)c21 (single isomer, unassigned) [Example 8, 3-(2,3-dichloroanilino)-2-{3-[(1,4-dioxan-2-yl)methoxy]pyridin-4-yl}-1,5,6,7-tetrahydro-4H-pyrrolo[3,2-c]pyridin-4-one] | 1.2 | 4.91 | 11.6 | 9.62 | 0.247 nM | < 3 | 23.1 | 0.0799 nM |
| Cc1c(Cl)cccc1Nc1c(-c2ccncc2OC[C@@H]2CN(C)CCO2)[nH]c2c1C(=O)NCC2 [Example 42, 3-(3-chloro-2-methylanilino)-2-(3-{[(2S)-4-methylmorpholin-2-yl]methoxy}pyridin-4-yl)-1,5,6,7-tetrahydro-4H-pyrrolo[3,2-c]pyridin-4-one] | 1.63 | 6.01 | 12 | 14.1 | 0.494 nM | < 3 | 48.5 | 0.155 nM |
| CCc1c(Cl)cccc1Nc1c(-c2ccncc2OC[C@@H]2CN(C)CCO2)[nH]c2c1C(=O)NCC2 [Example 56, 3-(3-chloro-2-ethylanilino)-2-(3-{[(2S)-4-methylmorpholin-2-yl]methoxy}pyridin-4-yl)-1,5,6,7-tetrahydro-4H-pyrrolo[3,2-c]pyridin-4-one] | 1.31 | 7.36 | 6.96 | 14.1 | 0.423 nM | < 3 | 48.9 | 0.258 nM |
| COc1c(Cl)cccc1Nc1c(-c2ccncc2OC[C@@H]2COCCN2C)[nH]c2c1C(=O)NCC2 [Example 21, 3-(3-chloro-2-methoxyanilino)-2-(3-{[(3S)-4-methylmorpholin-3-yl]methoxy}pyridin-4-yl)-1,5,6,7-tetrahydro-4H-pyrrolo[3,2-c]pyridin-4-one] | 0.444 | 4.22 | 5.65 | 7.78 | 0.259 nM | < 3 | 27.6 | 0.126 nM |
| COc1c(F)cccc1Nc1c(-c2ccncc2OCC2COCCO2)[nH]c2c1C(=O)NCC2 (single isomer, unassigned) [Example 5, 2-{3-[(1,4-dioxan-2-yl)methoxy]pyridin-4-yl}-3-(3-fluoro-2-methoxyanilino)-1,5,6,7-tetrahydro-4H-pyrrolo[3,2-c]pyridin-4-one] | 2.67 | 11.5 | 26.3 | 28.7 | 0.668 nM | – | 79.3 | <0.0725 nM and 0.0851 nM and 0.112 nM and 0.114 nM and 0.12 nM and 0.124 nM and 0.136 nM |
| COc1c(Cl)cccc1Nc1c(-c2ccncc2OCC2COC(C)(C)CO2)[nH]c2c1C(=O)NCC2 (single isomer, unassigned) [Example 32, 3-(3-chloro-2-methoxyanilino)-2-{3-[(5,5-dimethyl-1,4-dioxan-2-yl)methoxy]pyridin-4-yl}-1,5,6,7-tetrahydro-4H-pyrrolo[3,2-c]pyridin-4-one] | 1.12 | 11 | 9.38 | 13.2 | 0.511 nM | < 3 | 47.3 | 0.127 nM |
| Cc1c(Cl)cccc1Nc1c(-c2ccncc2OC[C@H]2COCCO2)[nH]c2c1C(=O)NCC2 (single isomer, unassigned) [Example 50] | 1.6 | 7.42 | 11.3 | 10.4 | 0.348 nM | < 3 | 40.3 | 0.17 nM |
| Cc1c(F)cccc1Nc1c(-c2ccncc2OCC2COCCO2)[nH]c2c1C(=O)NCC2 (single isomer, unassigned) [Example 48, 2-[3-(1,4-dioxan-2-ylmethoxy)-4-pyridyl]-3-(3-fluoro-2-methyl-anilino)-1,5,6,7-tetrahydropyrrolo[3,2-c]pyridin-4-one] | – | 17.6 | 42.4 | 41.8 | 0.4 nM and 0.776 nM | < 3 | 142 | 0.249 nM |
| Cc1c(Cl)cccc1Nc1c(-c2ccncc2OCC2COC(C)(C)CO2)[nH]c2c1C(=O)NCC2 (single isomer, unassigned) [Example 46, 3-(3-chloro-2-methyl-anilino)-2-[3-[(5,5-dimethyl-1,4-dioxan-2-yl)methoxy]-4-pyridyl]-1,5,6,7-tetrahydropyrrolo[3,2-c]pyridin-4-one] | – | 5.77 | 14.3 | 11.7 | – | < 3 | 38.9 | 0.433 nM |
| COc1c(Cl)cccc1Nc1c(-c2ccncc2OC[C@@H]2COCCO2)[nH]c2c1C(=O)NCC2 (single isomer, unassigned) [Example 2] | 0.603 | 7.48 | 4.44 | 4.66 | 0.22 nM | < 3 | 28.2 | – |
